According to patent publication US9402819B2, “Anti-HIV compound and preparation method and use thereof” (Sichuan University, priority 2012, dated 2016):
Converted amounts (≈) assume the structure as drawn.

Experiments:
[1] = Cytotoxicity (CC50) in C8166 cells; assay type: cell-based; conditions: human
Protocol: (§1) The anti-HIV activity was determined by the “Guiding Principles of Anti HIV Drug Unclinical Pharmacodynamics” of SFDA which is tested by technology standard assay according to International Universal Standards and Methods. Where in CC50, EC50 were measured twice and took the average.

HIV-1IIIB [2] = test: Anti-HIV activity in H9 cells; assay type: cell-based; conditions: for TI: CC50/EC50
Protocol: as §1

HIV-1IIIB [3] = test: Anti-HIV activity in C8166 cells; assay type: cell-based; conditions: for TI: CC50/EC50
Protocol: as §1

[4] = Cytotoxicity (CC50) in H9 cells; assay type: cell-based, human; conditions: human
Protocol: as §1

[5] = Human immunodeficiency virus 1, HIV-1IIIB, H9 cells, read-out: EC50
[6] = Human immunodeficiency virus 1, HIV-1IIIB, C8166 cells, read-out: EC50

Row | EC50 (HIV-1IIIB [2]; [5]) | EC50 (HIV-1IIIB [3]; [6]) | SMILES | CC50 [1] | TI (HIV-1IIIB [2]; H9 cells) | TI (HIV-1IIIB [3]; C8166 cells) | CC50 ([4]; H9 cells, read-out: CC50) | CC50 [4] | EC50 (HIV-1IIIB [2]; Human immunodeficiency virus 1, H9) | EC50 (HIV-1IIIB [3]; Human immunodeficiency virus 1, C8166)
1 | 137 µg/mL (≈ 256 µM) | 24.5 µg/mL (≈ 45.7 µM) | COc1ccccc1NC(=O)c1c(NS(=O)(=O)c2ccccc2)cccc1Sc1ccc([N+](=O)[O-])cc1 [Compound 56, N-(2-methoxyphenyl)-2-(4-nitrophenylthio)-6-(phenylsulfonamido)benzamide] | > 200 µg/mL | >1.46 | >8.17 | > 200 µg/mL |  |  | 
2 |  |  | COc1ccccc1NC(=O)c1c(N)cccc1Sc1ccc(C(=O)O)cc1 [Compound 76, 4-((3-amino-2-((2-methoxyphenyl)carbamoyl)phenyl)thio)benzoic acid] | > 200 µg/mL |  |  | > 200 µg/mL |  |  | 
3 |  |  | COc1ccccc1NC(=O)c1cc(C(F)(F)F)ccc1Sc1ccc([N+](=O)[O-])cc1 [Compound 22, N-(2-methoxyphenyl)-2-((4-nitrophenyl)thio)-5-(trifluoromethyl)benzamide] |  |  |  | > 200 µg/mL |  |  | 
4 |  |  | COc1ccccc1NC(=O)c1c(NS(=O)(=O)c2ccccc2)cccc1S(=O)(=O)c1ccc([N+](=O)[O-])cc1 [Compound 61, N-(2-methoxyphenyl)-2-((4-nitrophenyl)sulfonyl)-6-(phenylsulfonamido)benzamide] | > 200 µg/mL |  |  | > 200 µg/mL |  |  | 
5 |  |  | COc1ccccc1NC(=O)c1c(NCCBr)cccc1Sc1ccc([N+](=O)[O-])cc1 [Compound 64, 2-((2-bromoethyl)amino)-N-(2-methoxyp-henyl)-6-((4-nitrophenyl)thio)benzamide] | 10.4 µg/mL (≈ 20.7 µM) | 0.85 | 3.28 | 17.8 µg/mL (≈ 35.5 µM) |  | 21 µg/mL (≈ 41.8 µM) | 3.17 µg/mL (≈ 6.31 µM)
6 | > 200 µg/mL | 7.26 µg/mL (≈ 19.2 µM) | COc1ccccc1NC(=O)c1c(N)cccc1Sc1cc(C)cc(C)c1 [Compound 74, 2-amino-6-((3,5-dimethylphenyl)thio)-N-(2-methoxyphenyl)benzamide] | 68.6 µg/mL (≈ 181 µM) |  | 9.45 | > 200 µg/mL |  |  | 
7 |  |  | COc1ccccc1NC(=O)c1c(NCC(N)=O)cccc1Sc1ccc([N+](=O)[O-])cc1 [Compound 82, 2-((2-amino-2-oxoethyl)amino)-N-(2-methoxyphenyl)-6-((4-nitrophenyl)thio)benzamide] | > 200 µg/mL |  |  | > 200 µg/mL |  |  | 
8 | > 200 µg/mL | 91.3 µg/mL (≈ 157 µM) | COc1ccccc1NC(=O)c1c(NS(=O)(=O)c2ccc(C)cc2)cccc1S(=O)(=O)c1ccc([N+](=O)[O-])cc1 [Compound 60, N-(2-methoxyphenyl)-2-(4-methylphenyls-ulfonamido)-6-((4-nitrophenyl)sulfonyl)benzamide] | > 200 µg/mL |  | >2.19 | > 200 µg/mL |  |  | 
9 | 41.5 µg/mL (≈ 109 µM) |  | Nc1cccc(NC(=O)c2c(N)cccc2Sc2ccc([N+](=O)[O-])cc2)c1 [Compound 49, 2-amino-N-(3-aminophenyl)-6-(4-nitroph-enylthio)benzamide] |  | 4.82 |  | > 200 µg/mL |  |  | 
10 | > 200 µg/mL | 53.3 µg/mL (≈ 115 µM) | COc1ccccc1NC(=O)c1c(Sc2ccc([N+](=O)[O-])cc2)cccc1N1CCOCC1 [Compound 63, N-(2-methoxyphenyl)-2-morpholino-6-((4-nitrophenyl)thio)benzamide] | > 200 µg/mL |  | >3.75 | > 200 µg/mL |  |  | 
11 | 3.83 µg/mL (≈ 8.24 µM) | 3.43 µg/mL (≈ 7.38 µM) | COc1ccccc1NC(=O)c1c(Sc2ccc([N+](=O)[O-])cc2)cccc1N1CCNCC1 [Compound 62, N-(2-methoxyphenyl)-2-((4-nitrophenyl)thio)-6-(piperazinyl)benzamide] | 10.2 µg/mL (≈ 22.1 µM) | 3.71 | 2.99 | 14.2 µg/mL (≈ 30.6 µM) |  |  | 
12 | > 200 µg/mL | > 200 µg/mL | COc1ccccc1NC(=O)c1c(N)cccc1S(=O)(=O)c1cc(C)cc(C)c1 [Compound 75, 2-amino-6-((3,5-dimethylphenyl)sulfonyl)-N-(2-methoxyphenyl)benzamide] | > 200 µg/mL |  |  | > 200 µg/mL |  |  | 
13 | 19.1 µg/mL (≈ 43.6 µM) | 19.4 µg/mL (≈ 44.2 µM) | COc1ccccc1NC(=O)c1c(NCCO)cccc1Sc1ccc([N+](=O)[O-])cc1 [Compound 80, 2-((2-hydroxyethyl)amino)-N-(2-methoxyphenyl)-6-((4-nitrophenyl)thio)benzamide] | 93.5 µg/mL (≈ 213 µM) | 6.08 | 4.81 | 116 µg/mL (≈ 265 µM) |  |  | 
14 | 102 µg/mL (≈ 216 µM) | 89.1 µg/mL (≈ 189 µM) | COc1ccccc1NC(=O)c1c(NCCO)cccc1S(=O)(=O)c1ccc([N+](=O)[O-])cc1 [Compound 81, 2-((2-hydroxyethyl)amino)-N-(2-methoxyphenyl)-6-((4-nitrophenyl)sulfonyl)benzamide] | 102 µg/mL (≈ 217 µM) | 0.71 | 1.15 | 72.7 µg/mL (≈ 154 µM) |  |  | 
15 |  |  | COc1ccccc1NC(=O)c1c(N)cccc1S(=O)(=O)c1ccc(C(=O)O)cc1 [Compound 77, 4-((3-amino-2-((2-methoxyphenyl)carbamoyl)phenyl)sulfonyl)benzoic acid] | > 200 µg/mL |  |  | > 200 µg/mL |  |  | 
16 | 101 µg/mL (≈ 214 µM) | 93.5 µg/mL (≈ 199 µM) | COc1ccccc1NC(=O)c1c(NCCN)cccc1S(=O)(=O)c1ccc([N+](=O)[O-])cc1 [Compound 79, 2-((2-aminoethyl)amino)-N-(2-methoxyphenyl)-6-((4-nitrophenyl)sulfonyl)benzamide] | 90.9 µg/mL (≈ 193 µM) | 0.99 | 0.97 | 99.5 µg/mL (≈ 211 µM) |  |  | 
17 |  |  | CNc1cccc(S(=O)(=O)c2ccc([N+](=O)[O-])cc2)c1C(=O)Nc1ccccc1OC [Compound 59, N-(2-methoxyphenyl)-2-(methylamino)-6-((4-nitrophenyl)sulfonyl)benzamide] | > 200 µg/mL |  |  |  |  |  | 
18 |  |  | Nc1cccc(Sc2ccc([N+](=O)[O-])cc2)c1C(=O)Nc1ccccc1I [Compound 71, 2-amino-N-(2-iodophenyl)-6-((4-nitrophenyl)thio)benzamide] | > 200 µg/mL |  |  | > 200 µg/mL |  |  | 
19 |  |  | Nc1cccc(S(=O)(=O)c2ccc([N+](=O)[O-])cc2)c1C(=O)Nc1ccccc1I [Compound 72, 2-amino-N-(2-iodophenyl)-6-((4-nitrophenyl)sulfonyl)benzamide] | > 200 µg/mL |  |  | > 200 µg/mL |  |  | 
20 | 18.8 µg/mL (≈ 44.3 µM) |  | COc1ccc(NC(=O)c2c(N)cccc2Sc2ccc([N+](=O)[O-])cc2)c(OC)c1 [Compound 51, 2-amino-N-(2,4-dimethoxyphenyl)-6-(4-nitrophenylthio)benzamide] |  | 0.96 |  | 18.1 µg/mL (≈ 42.5 µM) |  |  | 
21 |  |  | COc1ccccc1NC(=O)c1c(N(C)C)cccc1S(=O)(=O)c1ccc([N+](=O)[O-])cc1 [Compound 58, 2-(dimethylamino)-N-(2-methoxyphenyl)-6-((4-nitrophenyl)sulfonyl)benzamide] | > 200 µg/mL |  |  | > 200 µg/mL |  |  | 
22 | 16.8 µg/mL (≈ 30.6 µM) | 14.1 µg/mL (≈ 25.6 µM) | COc1ccccc1NC(=O)c1c(NS(=O)(=O)c2ccc(C)cc2)cccc1Sc1ccc([N+](=O)[O-])cc1 [Compound 57, N-(2-methoxyphenyl)-2-(4-methylphenylsulfonamido)-6-((4-nitrophenyl)thio)benzamide] | 37.2 µg/mL (≈ 67.8 µM) | >11.90 | 2.65 | > 200 µg/mL |  |  | 
23 | 28.3 µg/mL (≈ 68.9 µM) |  | COc1cc(N)ccc1NC(=O)c1c(N)cccc1Sc1ccc([N+](=O)[O-])cc1 [Compound 50, 2-amino-N-(4-amino-2-methoxyphenyl)-6-(4-nitrophenylthio)benzamide] |  | 2.87 |  | 81.1 µg/mL (≈ 197 µM) |  |  | 
24 | > 200 µg/mL | 36.7 µg/mL | CS(=O)(=O)Oc1ccccc1NC(=O)c1c(N)cccc1Sc1ccc([N+](=O)[O-])cc1 [Compound 73, 2-(2-amino-6-((4-nitrophenyl)thio)benzamildo)phenyl methanesulfonate] | 194 µg/mL |  | 5.28 | > 200 µg/mL |  |  | 
25 |  |  | COc1ccccc1NC(=O)c1c(NCP(=O)(OC(C)C)OC(C)C)cccc1Sc1ccc([N+](=O)[O-])cc1 [Compound 65, diisopropyl(((2-((2-methoxyphenyl)carbamoyl)-3-((4-nitro-phenyl)thio)phenyl)amino)methyl)phosphonate] | 18.8 µg/mL (≈ 32.8 µM) |  |  | 25.4 µg/mL (≈ 44.3 µM) |  |  | 

Row | SMILES | EC50 (HIV-1IIIB [2]; [5]) | EC50 (HIV-1IIIB [3]; [6]) | CC50 [1] | TI (HIV-1IIIB [2]; H9 cells) | TI (HIV-1IIIB [3]; C8166 cells) | CC50 ([4]; H9 cells, read-out: CC50) | CC50 [4] | EC50 (HIV-1IIIB [2]; Human immunodeficiency virus 1, H9) | EC50 (HIV-1IIIB [3]; Human immunodeficiency virus 1, C8166)
26 | Nc1ccccc1NC(=O)c1c(Sc2ccc([N+](=O)[O-])cc2)cccc1[N+](=O)[O-] [Compound 53, N-(2-aminophenyl)-2-nitro-6-(4-nitrophenylthio)benzamide] | 43.7 µg/mL (≈ 106 µM) |  |  | >4.58 |  | > 200 µg/mL |  |  | 
27 | O=C(O)c1cccc(NC(=O)c2c(Sc3ccc([N+](=O)[O-])cc3)cccc2[N+](=O)[O-])c1 [Compound 54, 3-(2-nitro-6-(4-nitrophenylthio)benzamildo)benzoic acid] | 83.9 µg/mL (≈ 191 µM) |  |  | 1.02 |  |  | 85.8 µg/mL (≈ 195 µM) |  | 
28 | COc1ccccc1NC(=O)c1cc(NC(C)=O)ccc1Sc1ccc([N+](=O)[O-])cc1 [Compound 29, 5-acetamido-N-(2-methoxyphenyl)-2-((4-nitrophenyl)thio)benzamide] | > 200 µg/mL | 73.5 µg/mL (≈ 168 µM) | 110 µg/mL (≈ 251 µM) | <0.37 | 1.49 | 74.6 µg/mL (≈ 171 µM) |  |  | 
29 | COc1ccccc1NC(=O)c1cc([N+](=O)[O-])ccc1Sc1ccc([N+](=O)[O-])cc1 [Compound 23, N-(2-methoxyphenyl)-5-nitro-2-(4-nitrophenylthio)benzamide] | > 200 µg/mL | > 200 µg/mL | > 200 µg/mL |  |  | > 200 µg/mL |  |  | 
30 | Nc1ccc(NC(=O)c2c(Sc3ccc([N+](=O)[O-])cc3)cccc2[N+](=O)[O-])cc1 [Compound 55, N-(4-aminophenyl)-2-nitro-6-(4-nitrophenylthio)benzamide] | > 200 µg/mL | > 200 µg/mL | > 200 µg/mL |  |  | > 200 µg/mL |  |  | 
31 | COc1ccccc1NC(=O)c1c(Sc2ccc([N+](=O)[O-])cc2)cccc1[N+](=O)[O-] [Compound 52, N-(2-methoxyphenyl)-2-nitro-6-(4-nitrophenylthio)benzamide] | > 200 µg/mL |  |  |  |  | > 200 µg/mL |  |  | 
